# Assay results: patent US9242996B2 (Novartis AG, priority 2013, dated 2016)
# Target: activated ERK2 (Homo sapiens (Human), UniProt P28482)
# Experiment: Activated ERK2 kinase assay, ERK2 New conditions (AlphaScreen, ERKtide phosphorylation)
# Type: biochemical
# Conditions: 0.25 nM ERK2, 200 nM ERKtide peptide, 35 μM ATP, 30 min preincubation
# Procedure: The assay is carried out in 50 mM HEPES [pH 7.5], 5 mM MgCl2, 1 mM DTT, 0.01% Tween-20, 0.05% BSA using 0.25 nM ERK2, 200 nM ERKtide peptide and 35 μM ATP (all concentrations are final in the reaction) in a total volume of 10.25 μL. […] Compound dilution series are prepared in 100% DMSO. ERK2 is preincubated with compounds for 30 minutes at ambient temperature. Reaction is initiated by addition of a substrate cocktail of ERKtide peptide and ATP and is allowed to proceed for 2-3 hours at ambient temperature. Reaction is terminated by addition of 10 μL of a 2× stop buffer consisting of 100 mM Tris-Cl [pH 7.5], 25 mM EDTA, 0.01% Tween 20, 10 μg/mL of AlphaScreen Protein A Acceptor Beads, 10 μg/mL of Streptavidin Donor Beads (PerkinElmer, Waltham, Mass.), and 1.4 μg/mL phospho-EGF Receptor (Thr669) antibody (Cat #3056, Cell Signaling Technology, Danvers, Mass.). Terminated reactions are read, after overnight incubation in the dark, on an EnVision Multilabel Plate Reader (PerkinElmer, Waltham, Mass.), with excitation and emission wavelengths set to 680 nm and 570 nm, respectively. IC50 values are determined using a four-parameter fit.
# Sequence of activated ERK2 (P28482 whole entry): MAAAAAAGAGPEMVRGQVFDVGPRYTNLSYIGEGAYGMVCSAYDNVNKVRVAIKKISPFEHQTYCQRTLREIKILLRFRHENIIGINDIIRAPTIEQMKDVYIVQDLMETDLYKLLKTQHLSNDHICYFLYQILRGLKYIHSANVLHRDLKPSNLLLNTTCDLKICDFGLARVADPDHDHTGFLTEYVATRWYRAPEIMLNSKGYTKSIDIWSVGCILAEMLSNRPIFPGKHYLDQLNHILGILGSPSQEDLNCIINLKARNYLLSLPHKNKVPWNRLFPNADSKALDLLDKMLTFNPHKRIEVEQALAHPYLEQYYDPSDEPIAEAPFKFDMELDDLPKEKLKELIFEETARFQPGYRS
row,Structure (SMILES),IC50
1,"Nc1ncc(CCO)nc1-c1ccc(C(=O)N[C@H](CO)c2ccccc2)c(F)c1 [Example 111, (S)-4-(3-amino-6-(2-hydroxyethyl)pyrazin-2-yl)-2-fluoro-N-(2-hydroxy-1-phenylethyl)benzamide]",30.8 nM
2,"COCCc1cnc(N)c(-c2ccc(C(=O)N[C@H](CO)c3ccccc3)c(F)c2)n1 [Example 112, (S)-4-(3-amino-6-(2-methoxyethyl)pyrazin-2-yl)-2-fluoro-N-(2-hydroxy-1-phenylethyl)benzamide]",141 nM
3,"Nc1ncc(C2CCOCC2)cc1-c1ccc(C(=O)N[C@@H]2CCCN(Cc3ccccc3F)C2)c(F)c1 [Example 113, (R)-4-(2-amino-5-(tetrahydro-2H-pyran-4-yl)pyridin-3-yl)-2-fluoro-N-(1-(2-fluorobenzyl)piperidin-3-yl)benzamide]",780 nM
4,"N#CCCc1cnc(N)c(-c2ccc(C(=O)N[C@H](CO)c3ccccc3)c(F)c2)n1 [Example 114, (S)-4-(3-amino-6-(2-cyanoethyl)pyrazin-2-yl)-2-fluoro-N-(2-hydroxy-1-phenylethyl)benzamide]",124 nM
5,"Nc1ncc(C2CCOCC2)nc1-c1ccc(C(=O)N[C@H]2CCCN(Cc3ccccc3F)C2)c(F)c1 [Example 125, (S)-4-(3-amino-6-(tetrahydro-2H-pyran-4-yl)pyrazin-2-yl)-2-fluoro-N-(1-(2-fluorobenzyl)piperidin-3-yl)benzamide]",2230 nM
6,"Nc1ncc(C2CCOCC2)nc1-c1ccc(C(=O)N[C@@H]2CCCN(Cc3ccccc3F)C2)c(F)c1 [Example 126, (R)-4-(3-amino-6-(tetrahydro-2H-pyran-4-yl)pyrazin-2-yl)-2-fluoro-N-(1-(2-fluorobenzyl)piperidin-3-yl)benzamide]",169 nM
7,"Nc1ncc(-c2ccc(=O)[nH]c2)nc1-c1ccc(C(=O)N[C@H](CO)c2ccccc2)cc1 [Example 129, (S)-4-(3-amino-6-(6-oxo-1,6-dihydropyridin-3-yl)pyrazin-2-yl)-N-(2-hydroxy-1-phenylethyl)benzamide]",2.02 nM
8,"N#CCc1cnc(N)c(-c2ccc(C(=O)N[C@H](CO)c3ccccc3)c(F)c2)c1 [Example 134, (S)-4-(2-amino-5-(cyanomethyl)pyridin-3-yl)-2-fluoro-N-(2-hydroxy-1-phenylethyl)benzamide]",202 nM
9,"Nc1ncc([C@@H]2CCOC2)nc1-c1ccc(C(=O)N[C@H](CO)c2ccccc2)cc1 [Example 136, 4-(3-amino-6-((S)-tetrahydrofuran-3-yl)pyrazin-2-yl)-N—((S)-2-hydroxy-1-phenylethyl)benzamide]",4.51 nM
10,"Nc1ncc([C@H]2CCOC2)nc1-c1ccc(C(=O)N[C@H](CO)c2ccccc2)cc1 [Example 137, 4-(3-amino-6-((R)-tetrahydrofuran-3-yl)pyrazin-2-yl)-N—((S)-2-hydroxy-1-phenylethyl)benzamide]",31 nM
11,Nc1ncc(-c2ccoc2)nc1-c1ccc(C(=O)N[C@H](CO)c2ccccc2)cc1 [Example 138],13.3 nM
12,"Cc1cnccc1-c1cnc(N)c(-c2ccc(C(=O)NCc3cccc(S(C)(=O)=O)c3)cc2)n1 [Example 139, 4-(3-amino-6-(3-methylpyridin-4-yl)pyrazin-2-yl)-N-(3-(methylsulfonyl)benzyl)benzamide]",7.95 nM
13,"Cn1cc(-c2cnc(N)c(-c3ccc(C(=O)N[C@H](CO)c4ccccc4)cc3)n2)cn1 [Example 146, (S)-4-(3-amino-6-(1-methyl-1H-pyrazol-4-yl)pyrazin-2-yl)-N-(2-hydroxy-1-phenylethyl)benzamide]",3.39 nM
14,"Cn1cc(-c2cnc(N)c(-c3ccc(C(=O)NCc4cccc(S(C)(=O)=O)c4)c(F)c3)n2)cn1 [Example 147, 4-(3-amino-6-(1-methyl-1H-pyrazol-4-yl)pyrazin-2-yl)-2-fluoro-N-(3-(methylsulfonyl)benzyl)benzamide]",45.4 nM
15,"Cn1cc(-c2cnc(N)c(-c3ccc(C(=O)N[C@H](CO)c4ccccc4)c(F)c3)n2)cn1 [Example 148, (S)-4-(3-amino-6-(1-methyl-1H-pyrazol-4-yl)pyrazin-2-yl)-2-fluoro-N-(2-hydroxy-1-phenylethyl)benzamide]",1.9 nM
16,"Cc1noc(C)c1-c1cnc(N)c(-c2ccc(C(=O)N[C@H](CO)c3ccccc3)c(F)c2)n1 [Example 156, (S)-4-(3-amino-6-(3,5-dimethylisoxazol-4-yl)pyrazin-2-yl)-2-fluoro-N-(2-hydroxy-1-phenylethyl)benzamide]",3.32 nM
17,"Cn1cc(-c2cnc(N)c(-c3ccc(C(=O)N[C@H](CO)c4cccc(F)c4)c(F)c3)c2)c(C#N)n1 [Example 159, (S)-4-(2-amino-5-(3-cyano-1-methyl-1H-pyrazol-4-yl)pyridin-3-yl)-2-fluoro-N-(1-(3-fluorophenyl)-2-hydroxyethyl)benzamide]",3.14 nM
18,"Cc1ncc(-c2cnc(N)c(-c3ccc(C(=O)N[C@H](CO)c4ccccc4)c(F)c3)c2)n1C [Example 161, (S)-4-(2-amino-5-(1,2-dimethyl-1H-imidazol-5-yl)pyridin-3-yl)-2-fluoro-N-(2-hydroxy-1-phenylethyl)benzamide]",5.78 nM
19,"Cc1ncc(-c2cnc(N)c(-c3ccc(C(=O)N[C@H](CO)c4cccc(F)c4)c(F)c3)c2)n1C [Example 163, (S)-4-(2-amino-5-(1,2-dimethyl-1H-imidazol-5-yl)pyridin-3-yl)-2-fluoro-N-(1-(3-fluorophenyl)-2-hydroxyethyl)benzamide]",5.14 nM
20,"Cc1oncc1-c1cnc(N)c(-c2ccc(C(=O)N[C@H](CO)c3cccc(F)c3)c(F)c2)c1 [Example 165, (S)-4-(2-amino-5-(5-methylisoxazol-4-yl)pyridin-3-yl)-2-fluoro-N-(1-(3-fluorophenyl)-2-hydroxyethyl)benzamide]",390 nM

# Continued, values first:
row,IC50,Structure (SMILES)
1,0.835 nM,"Cn1cc(-c2cnc(N)c(-c3ccc(C(=O)N[C@H](CO)c4cccc(Cl)c4)c(F)c3)c2)nn1 [Example 128, (S)-4-(2-amino-5-(1-methyl-1H-1,2,3-triazol-4-yl)pyridin-3-yl)-N-(1-(3-chlorophenyl)-2-hydroxyethyl)-2-fluorobenzamide]"
2,1.41 nM,"Cn1cncc1-c1cnc(N)c(-c2ccc(C(=O)N[C@H](CO)c3ccccc3)c(F)c2)c1 [Example 140, (S)-4-(2-amino 5-(1-methyl-1H-imidazol-5-yl)pyridin-3-yl)-2-fluoro-N-(2-hydroxy-1-phenylethyl)benzamide]"
3,0.183 nM,"Cn1nncc1-c1cnc(N)c(-c2cc(F)c(C(=O)N[C@H](CO)c3cccc(Cl)c3)c(F)c2)c1 [Example 141, (S)-4-(2-amino-5-(1-methyl-1H-1,2,3-triazol-5-yl)pyridin-3-yl)-N-(1-(3-chlorophenyl)-2-hydroxyethyl)-2,6-difluorobenzamide]"
4,1.18 nM,"Nc1ncc(-c2ccnnc2)nc1-c1ccc(C(=O)N[C@H](CO)c2ccccc2)c(F)c1 [Example 144, (S)-4-(3-amino-6-(pyridazin-4-yl)pyrazin-2-yl)-2-fluoro-N-(2-hydroxy-1-phenylethyl)benzamide]"
5,0.149 nM,"Cc1cc(-c2cc(-c3cnnn3C)cnc2N)ccc1C(=O)N[C@H](CO)c1cccc(Cl)c1 [Example 149, (S)-4-(2-amino-5-(1-methyl-1H-1,2,3-triazol-5-yl)pyridin-3-yl)-N-(1-(3-chlorophenyl)-2-hydroxyethyl)-2-methylbenzamide]"
6,0.38 nM,"Cc1nn(C)cc1-c1cnc(N)c(-c2ccc(C(=O)N[C@H](CN)c3ccccc3)c(F)c2)c1 [Example 153, (S)-N-(2-amino-1-phenylethyl)-4-(2-amino-5-(1,3-dimethyl-1H-pyrazol-4-yl)pyridin-3-yl)-2-fluorobenzamide]"
7,0.288 nM,"Cc1nn(C)c(C)c1-c1cnc(N)c(-c2ccc(C(=O)N[C@H](CO)c3cccc(Cl)c3)c(F)c2)c1 [Example 154, (S)-4-(2-amino 5-(1,3,5-trimethyl-1H-pyrazol-4-yl)pyridin-3-yl)-N-(1-(3-chlorophenyl)-2-hydroxyethyl)-2-fluorobenzamide]"
8,1.89 nM,"Cn1cc(-c2cnc(N)c(-c3ccc(C(=O)NC4CC4c4ccccc4)c(F)c3)n2)cn1 (centres unmarked) [Example 155, 4-(3-amino-6-(1-methyl-1H-pyrazol-4-yl)pyrazin-2-yl)-2-fluoro-N-(2-phenylcyclopropyl)benzamide]"
9,0.416 nM,"Cc1oncc1-c1cnc(N)c(-c2ccc(C(=O)N[C@H](CO)c3ccccc3)c(F)c2)n1 [Example 157, (S)-4-(3-amino-6-(5-methylisoxazol-4-yl)pyrazin-2-yl)-2-fluoro-N-(2-hydroxy-1-phenylethyl)benzamide]"
10,0.634 nM,"Cc1oncc1-c1cnc(N)c(-c2ccc(C(=O)N[C@H](CO)c3ccccc3)c(F)c2)c1 [Example 158, (S)-4-(2-amino-5-(5-methylisoxazol-4-yl)pyridin-3-yl)-2-fluoro-N-(2-hydroxy-1-phenylethyl)benzamide]"
11,0.653 nM,"Cn1cc(-c2cnc(N)c(-c3ccc(C(=O)N[C@H](CO)c4cccc(Cl)c4)c(F)c3)c2)c(C#N)n1 [Example 160, (S)-4-(2-amino 5-(3-cyano-1-methyl-1H-pyrazol-4-yl)pyridin-3-yl)-N-(1-(3-chlorophenyl)-2-hydroxyethyl)-2-fluorobenzamide]"
12,1.4 nM,"Nc1ncc(-c2cnoc2)cc1-c1ccc(C(=O)N[C@H](CO)c2ccccc2)c(F)c1 [Example 164, (S)-4-(2-amino-5-(isoxazol-4-yl)pyridin-3-yl)-2-fluoro-N-(2-hydroxy-1-phenylethyl)benzamide]"
